What follows are compounds tested against recombinant DYRK1A kinase (Homo sapiens (Human), UniProt Q13627) (assay: DYRK1A kinase assay (Ser/Thr 18 peptide Z-lyte FRET)). Details: DYRK1A kinase activity, Z-lyte Ser/Thr 18 peptide, 15 μM ATP; method text calls the value IC50; read-out: EC50 (the source's name).
Format: biochemical
Procedure, shortened: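 Recombinant enzyme (0.25 μg/mL final) was incubated with 15 μM ATP, 4 μM Ser/Thr 18 peptide and compound (11-point 1:3 series from 10 μM) for 1 h at room temperature, in duplicate. Development reagent was added for 1 h, and coumarin/fluorescein emission ratio gave % phosphorylation; IC50 by non-linear regression.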
`CN1CC[C@@H](Nc2nc(OC3COC3)c3c(-c4ccc5ncccc5c4)ccn3n2)C(F)(F)C1` [Compound 1091, (R)—N-(3,3-Difluoro-1-methylpiperidin-4-yl)-4-(oxetan-3-yloxy)-5-(quinolin-6-yl)pyrrolo[2,1-f][1,2,4]triazin-2-amine] was tested, and the IC50 was 1.8 nM.
`COc1nc(N[C@@H]2COC[C@H]2O)nn2ccc(-c3ccc4nccnc4c3)c12` [Compound 1093, (3S,4R)-4-((4-Methoxy-5-(quinoxalin-6-yl)pyrrolo[2,1-f][1,2,4]triazin-2-yl)amino)tetrahydrofuran-3-ol] gave an IC50 of 4.3 nM.
For `CCN1CC[C@@H](Nc2nc(OC)c3c(-c4ccc5nccnc5c4)ccn3n2)C(F)(F)C1` [Compound 1095, (R)—N-(1-Ethyl-3,3-difluoropiperidin-4-yl)-4-methoxy-5-(quinoxalin-6-yl)pyrrolo[2,1-f][1,2,4]triazin-2-amine], the IC50 was 4 nM.
`COc1nc(N[C@@H]2CCN(C(C)=O)CC2(F)F)nn2ccc(-c3ccc4nccnc4c3)c12` [Compound 1096, (R)-1-(3,3-Difluoro-4-((4-methoxy-5-(quinoxalin-6-yl)pyrrolo[2,1-f][1,2,4]triazin-2-yl)amino)piperidin-1-yl)ethan-1-one] was tested, and the IC50 was 3 nM.
With `COc1nc(N[C@@H]2CCC(=O)N(C)C2)nn2ccc(-c3ccc4nccnc4c3)c12` [Compound 1097, (R)-5-((4-Methoxy-5-(quinoxalin-6-yl)pyrrolo[2,1-f][1,2,4]triazin-2-yl)amino)-1-methylpiperidin-2-one] the IC50 was 2.7 nM.
In the case of `COc1nc(NC2CC3(CCOCC3)C2)nn2ccc(-c3ccc4nccnc4c3)c12` [Compound 1100, 4-Methoxy-5-(quinoxalin-6-yl)-N-(7-oxaspiro[3.5]nonan-2-yl)pyrrolo[2,1-f][1,2,4]triazin-2-amine], the IC50 is reported as 6.7 nM.
`C[C@]1(O)CC[C@H](Nc2nc(OCC(F)F)c3c(-c4ccc5nccnc5c4)ccn3n2)CC1` [Compound 1130, (1r,4r)-4-((4-(2,2-Difluoroethoxy)-5-(quinoxalin-6-yl)pyrrolo[2,1-f][1,2,4]triazin-2-yl)amino)-1-methylcyclohexan-1-ol] showed an IC50 of 0.8 nM.
In the case of `CN1CC[C@@H](Nc2nc(OC3COC3)c3c(-c4ccc5nccnc5c4)ccn3n2)C(F)(F)C1` [Compound 1136, (R)—N-(3,3-Difluoro-1-methylpiperidin-4-yl)-4-(oxetan-3-yloxy)-5-(quinoxalin-6-yl)pyrrolo[2,1-f][1,2,4]triazin-2-amine], the IC50 is reported as 3.8 nM.
In the case of `c1cnc2cc(-c3ccn4nc(NC5CC6(CCOCC6)C5)nc(OC5COC5)c34)ccc2n1` [Compound 1137, 4-(Oxetan-3-yloxy)-5-(quinoxalin-6-yl)-N-(7-oxaspiro[3.5]nonan-2-yl)pyrrolo[2,1-f][1,2,4]triazin-2-amine], the IC50 is reported as 4.8 nM.
`c1cnc2cc(-c3ccn4nc(NC5CCC6(CC5)COC6)nc(OC5COC5)c34)ccc2n1` [Compound 1138, 4-(Oxetan-3-yloxy)-5-(quinoxalin-6-yl)-N-(2-oxaspiro[3.5]nonan-7-yl)pyrrolo[2,1-f][1,2,4]triazin-2-amine] showed an IC50 of 3.3 nM.
Work on `COc1nc(N[C@H]2CC[C@](C)(O)CC2)nn2ccc(-c3ccc4ncn(CC(F)F)c4c3)c12` [Compound 1139, (1r,4r)-4-((5-(1-(2,2-Difluoroethyl)-1H-benzo[d]imidazol-6-yl)-4-methoxypyrrolo[2,1-f][1,2,4]triazin-2-yl)amino)-1-methylcyclohexan-1-ol] yielded an IC50 of 0.5 nM.
Work on `COc1nc(N[C@@H]2CCN(C(C)=O)CC2(F)F)nn2ccc(-c3ccc4ncn(CC(F)F)c4c3)c12` [Compound 1140, (R)-1-(4-((5-(1-(2,2-Difluoroethyl)-1H-benzo[d]imidazol-6-yl)-4-methoxypyrrolo[2,1-f][1,2,4]triazin-2-yl)amino)-3,3-difluoropiperidin-1-yl)ethan-1-one] yielded an IC50 of 1.3 nM.
Compound `COc1nc(N[C@H]2CCN(C3COC3)C[C@H]2F)nn2ccc(-c3ccc4ncn(CC(F)F)c4c3)c12` [Compound 1141, 5-(1-(2,2-Difluoroethyl)-1H-benzo[d]imidazol-6-yl)-N-((3R,4S)-3-fluoro-1-(oxetan-3-yl)piperidin-4-yl)-4-methoxypyrrolo[2,1-f][1,2,4]triazin-2-amine] has an IC50 of 1.4 nM.
`COc1nc(N[C@H]2CCN(C3COC3)C[C@H]2F)nn2ccc(-c3cc(F)c4nc(C)n(C(C)C)c4c3)c12` [Compound 1142, N-((3R,4S)-3-Fluoro-1-(oxetan-3-yl)piperidin-4-yl)-5-(4-fluoro-1-isopropyl-2-methyl-1H-benzo[d]imidazol-6-yl)-4-methoxypyrrolo[2,1-f][1,2,4]triazin-2-amine] showed an IC50 of 2.3 nM.
Work on `CCC(=O)N1CC[C@H](Nc2nc(OC)c3c(-c4ccc5nnn(CCF)c5c4)ccn3n2)[C@H](F)C1` [Compound 1143, 1-((3R,4S)-3-Fluoro-4-((5-(1-(2-fluoroethyl)-1H-benzo[d][1,2,3]triazol-6-yl)-4-methoxypyrrolo[2,1-f][1,2,4]triazin-2-yl)amino)piperidin-1-yl)propan-1-one] yielded an IC50 of 1.8 nM.
In the case of `COc1nc(NCC2(C)COC2)nn2ccc(-c3ccc4nnn(CC(F)F)c4c3)c12` [Compound 1144, 5-(1-(2,2-Difluoroethyl)-1H-benzo[d][1,2,3]triazol-6-yl)-4-methoxy-N-((3-methyloxetan-3-yl)methyl)pyrrolo[2,1-f][1,2,4]triazin-2-amine], the IC50 is reported as 2 nM.
Compound `COc1nc(N[C@H]2CCN(S(C)(=O)=O)C[C@H]2F)nn2ccc(-c3ccc4nnn(CC(F)F)c4c3)c12` [Compound 1145, 5-(1-(2,2-Difluoroethyl)-1H-benzo[d][1,2,3]triazol-6-yl)-N-((3R,4S)-3-fluoro-1-(methylsulfonyl)piperidin-4-yl)-4-methoxypyrrolo[2,1-f][1,2,4]triazin-2-amine] has an IC50 of 1.4 nM.
Work on `COc1nc(NCC(C)(C)C#N)nn2ccc(-c3cnc4nccn4c3)c12` [Compound 1146, 3-((5-(Imidazo[1,2-a]pyrimidin-6-yl)-4-methoxypyrrolo[2,1-f][1,2,4]triazin-2-yl)amino)-2,2-dimethylpropanenitrile] yielded an IC50 of 2 nM.
`COc1nc(N[C@H](C)C2CCOCC2)nn2ccc(-c3cnc4nccn4c3)c12` [Compound 1147, (R)-5-(Imidazo[1,2-a]pyrimidin-6-yl)-4-methoxy-N-(1-(tetrahydro-2H-pyran-4-yl)ethyl)pyrrolo[2,1-f][1,2,4]triazin-2-amine] showed an IC50 of 2.7 nM.
Compound `COc1nc(NC2CCOC(C)(C)C2)nn2ccc(-c3cnc4nccn4c3)c12` (stereo not drawn) [Compound 1148, N-(2,2-Dimethyltetrahydro-2H-pyran-4-yl)-5-(imidazo[1,2-a]pyrimidin-6-yl)-4-methoxypyrrolo[2,1-f][1,2,4]triazin-2-amine] has an IC50 of 0.6 nM.
Work on `COc1nc(N[C@@H]2CCOC[C@H]2F)nn2ccc(-c3cnc4nccn4c3)c12` [Compound 1149, N-((3S,4R)-3-Fluorotetrahydro-2H-pyran-4-yl)-5-(imidazo[1,2-a]pyrimidin-6-yl)-4-methoxypyrrolo[2,1-f][1,2,4]triazin-2-amine] yielded an IC50 of 4.5 nM.
For `COc1nc(NC2CC3CCC(C2)O3)nn2ccc(-c3cnc4nccn4c3)c12` (stereo not drawn) [Compound 1150, N-(8-Oxabicyclo[3.2.1]octan-3-yl)-5-(imidazo[1,2-a]pyrimidin-6-yl)-4-methoxypyrrolo[2,1-f][1,2,4]triazin-2-amine], the IC50 was 4.4 nM.
“N-(cis-4-((4-Methoxy-5-(quinolin-6-yl)pyrrolo[2,1-f][1,2,4]triazin-2-yl) amino)cyclohexyl)acetamide [Compound 1044]” gave an IC50 of 3.2 nM.

Each compound was assayed on Tau phosphorylation at Thr212 (pThr212) in HEK293T cells transfected with DYRK1A and MAPT (assay: Tau phosphorylation phosphoTau (Thr212) AlphaLISA assay in HEK293T cells transfected with DYRK1A and MAPT). Details: HEK-293T, HEK293T cells transiently transfected with human DYRK1A and MAPT, compound treatment 18-24 hours, read-out: pTau (Thr212) EC50.
Format: cell-based
Method: Representative compounds were screened using the assay procedure for tau phosphorylation activity described below.
HEK293T cells (ATCC, CRL3216) cultured in DMEM (Thermo Fisher Scientific, 10566024) supplemented with 10% FBS (Coming, 35-011—CV) and Penicillin/Streptomycin (Thermo Fisher Scientific, 15140163) were seeded in a 75 cm^2 flask at 8.1×10^6 cells/flask. The HEK293T cells were then transiently transfected with 5 μg DYRK1A (NM_001396) human untagged clone (OriGene, SC314641) and 2.5 μg MAPT (441 a.a. Tau gene) (NM_005910) human untagged clone (OriGene, TP313312) using Lipofectamine 3000 (Thermo Fisher Scientific, L30000015) and incubated for 20-30 hours in a humidified incubator at 37° C. and 5% CO^2. Post-incubation, HEK293T cells transfected with the DYRK1A and MAPT expression vectors were harvested and seeded in BioCoat poly-D lysine coated 96-well plates (Coming, 354461) at 3×10^4 cells/well.
The above synthesized compounds were screened using the cell assay procedure to assess decreased Tau phosphorylation at Thr212 (pThr212) described below.
Each compound was dissolved in DMSO (Sigma-Aldrich, D8418-100 mL) as a 10 mM stock. 10 mM stocks were serially diluted 1:3, 10-point dose-response curve and added to the cells with a final concentration ranging from 20 μM to 1.1 nM. Cells were treated with compounds in duplicate and incubated for 18-24 hours in a humidified incubator at 37° C. and 5% CO^2.
Following the overnight compound treatment, cells were lysed with 1X Alpha Surefire Ultra Lysis Buffer (Perkin Elmer, ALSU-LB-100ML) complemented with 1X Halt Phosphatase Inhibitor Cocktail (Thermo Fisher Scientific, 78427) and 1X Halt Protease Inhibitor Cocktail (Thermo Fisher Scientific, 78438). Lysates were spun down at 12,000 g for 10 min to remove any cellular debris and 5 μL of lysates were dispensed into a 384-well Opti-Plate (Perkin Elmer, 6007290) for the measurement of Tau phosphorylation in the phosphoTau (Thr212) AlphaLISA assay. Donor antibody, biotinylated HT7Tau (Thermo Fisher Scientific, MN1000B), and acceptor antibody, pThr212Tau (Thermo Fisher Scientific, 44740G) were both added to the cell lysates at a final concentration of 3 nM and incubated for 1 hour at room temperature. Following incubation of the lysates with the donor and acceptor antibodies, anti-rabbit IgG(Fc specific) AlphaLISA acceptor beads (Perkin Elmer, AL104C) were added at a 10 ug/mL final concentration and incubated for 1 hour at room temperature protected from light. Lastly, AlphaScreen streptavidin donor beads (PerkinElmer, 6760002) were added at 40 ug/mL final concentration and incubated for 1 hour at room temperature protected from light. Plates were read at […] on the EnVision Multilabel Plate Reader (Perkin Elmer). The phospho-Tau (Thr212) AlphaLISA signal was used to plot, draw the curve fitting, and determine each compound's EC50 in Prism (GraphPad).
For `COc1nc(N[C@H]2C[C@](C)(O)C2)nn2ccc(-c3ccc4nccn4c3)c12` [Compound 44, trans-3-((5-(Imidazo[1,2-a]pyridin-6-yl)-4-methoxypyrrolo[2,1-f][1,2,4]triazin-2-yl)amino)-1-methylcyclobutan-1-ol], the EC50 was 48.2 nM.
